From US20260224588A1, “BENZODIAZEPINONE-DERIVED INHIBITORS OF EGFR AND HER2” (The Research Foundation for the State University of New York, priority 2023, published 2026)
“Also recorded” adds a separate entry of the source.

Assays:
CAMK2D = CAMK2D (Homo sapiens, UniProt Q13557); test: KINOMEscan; format: binding; conditions: 1 μM of compound 4; read-out: POC
PIM3 = PIM3 (Homo sapiens, UniProt Q86V86); test: KINOMEscan; format: binding; conditions: 1 μM of compound 4; read-out: POC
SGK3 = target: T1, SGK3 (Homo sapiens, UniProt Q96BR1); test: KINOMEscan; format: binding; conditions: 1 μM of compound 4; read-out: POC
T1 construct: purchased Eurofins DiscoverX (KINOMEscan service)

PIK4CB = PIK4CB (Homo sapiens, UniProt Q9UBF8); test: KINOMEscan; format: binding; conditions: 1 μM of compound 4; read-out: POC
[1] = test system: EGFR (L858R/T790M) in H1975 lung cancer cells; test: Western blotting of EGFR, ERK1/2 and AKT phosphorylation; format: cell-based, human; conditions: 6 hours treatment
Protocol: FIG. 2. […] All experiments performed after 6 hours treatments of inhibitors or DMSO controls and Western blots are representative of at least three independent experiments.
Western blotting. Cells were collected and lysed with lysis buffer (5M NaCl, 1M TRIS pH 8.0, 10% SDS, 10% Triton X-100 and a tablet of protease inhibitors) and processed for Western blotting analysis. Primary antibodies used; phospho-EGFR (Tyr1068; #2234, 1:1,000), EGFR (#4267; 1:1,000), phospho-AKT (Ser473; #4060, 1:1,000), AKT (#9272, 1:1,000), phospho-ERK1/2 (Thr202/Tyr204; #4370, 1:1,000), and ERK1/2 (#4695, 1:1,000) antibodies; were purchased from Cell Signaling Technology. Secondary Goat anti-rabbit IgG starbright blue 700 and Anti-tubulin hFAB Rhodamine Tubulin were purchased from Bio-rad.

IKK-beta = IKK-beta (Homo sapiens, UniProt O14920); test: KINOMEscan; format: binding; conditions: 1 μM of compound 4; read-out: POC
DMPK2 = DMPK2 (Homo sapiens, UniProt Q6DT37); test: KINOMEscan; format: binding; conditions: 1 μM of compound 4; read-out: POC
GRK3 = target: T2, GRK3 (Homo sapiens, UniProt P35626); test: KINOMEscan; format: binding; conditions: 1 μM of compound 4; read-out: POC
T2 construct: purchased Eurofins DiscoverX Corporation

MELK = MELK (Homo sapiens, UniProt Q14680); test: KINOMEscan; format: binding; conditions: 1 μM of compound 4; read-out: POC
MLCK = MLCK (Homo sapiens, UniProt Q32MK0); test: KINOMEscan; format: binding; conditions: 1 μM of compound 4; read-out: POC
[2] = target: T3, ABL1(E255K)-phosphorylated (Homo sapiens, UniProt P00519, E255K); test: KINOMEscan; format: binding; conditions: 1 μM of compound 4; read-out: POC
T3 construct: purchased Eurofins DiscoverX Corporation

MAP4K4 = MAP4K4 (Homo sapiens, UniProt O95819); test: KINOMEscan; format: binding; conditions: 1 μM of compound 4; read-out: POC
PIK3CB = PIK3CB (Homo sapiens, UniProt P42338); test: KINOMEscan; format: binding; conditions: 1 μM of compound 4; read-out: POC
PRKR = PRKR (Homo sapiens, UniProt P19525); test: KINOMEscan; format: binding; conditions: 1 μM of compound 4; read-out: POC
OSR1 = target: T4, OSR1 (Homo sapiens, UniProt O95747); test: KINOMEscan; format: binding; conditions: 1 μM of compound 4; read-out: POC
T4 construct: purchased Eurofins DiscoverX Corporation (KINOMEscan)

TAK1 = target: T5, TAK1 (Homo sapiens, UniProt O43318); test: KINOMEscan; format: binding; conditions: 1 μM of compound 4; read-out: POC
T5 construct: purchased Eurofins DiscoverX Corporation

PRP4 = PRP4 (Homo sapiens, UniProt Q13523); test: KINOMEscan; format: binding; conditions: 1 μM of compound 4; read-out: POC
KIT = KIT (Homo sapiens, UniProt P10721); test: KINOMEscan; format: binding; conditions: 1 μM of compound 4; read-out: POC
MUSK = MUSK (Homo sapiens, UniProt O15146); test: KINOMEscan; format: binding; conditions: 1 μM of compound 4; read-out: POC
CDKL3 = CDKL3 (Homo sapiens, UniProt Q8IVW4); test: KINOMEscan; format: binding; conditions: 1 μM of compound 4; read-out: POC
SBK1 = target: T6, SBK1 (Homo sapiens, UniProt Q52WX2); test: KINOMEscan; format: binding; conditions: 1 μM of compound 4; read-out: POC
T6 construct: purchased Eurofins DiscoverX (KINOMEscan service)

MAP4K3 = MAP4K3 (Homo sapiens, UniProt Q8IVH8); test: KINOMEscan; format: binding; conditions: 1 μM of compound 4; read-out: POC
ABL1-phosphorylated = target: T7, ABL1-phosphorylated (Homo sapiens, UniProt P00519); test: KINOMEscan; format: binding; conditions: 1 μM of compound 4; read-out: POC
T7 construct: purchased Eurofins DiscoverX Corporation

WNK2 = target: T8, WNK2 (Homo sapiens, UniProt Q9Y3S1); test: KINOMEscan; format: binding; conditions: 1 μM of compound 4; read-out: POC
T8 construct: purchased Eurofins DiscoverX

CDKL5 = CDKL5 (Homo sapiens, UniProt O76039); test: KINOMEscan; format: binding; conditions: 1 μM of compound 4; read-out: POC
CSNK1E = CSNK1E (Homo sapiens, UniProt P49674); test: KINOMEscan; format: binding; conditions: 1 μM of compound 4; read-out: POC
CAMK2A = CAMK2A (Homo sapiens, UniProt Q9UQM7); test: KINOMEscan; format: binding; conditions: 1 μM of compound 4; read-out: POC
ITK = ITK (Homo sapiens, UniProt Q08881); test: KINOMEscan; format: binding; conditions: 1 μM of compound 4; read-out: POC
NEK4 = NEK4 (Homo sapiens, UniProt P51957); test: KINOMEscan; format: binding; conditions: 1 μM of compound 4; read-out: POC
ULK2 = target: T9, ULK2 (Homo sapiens, UniProt Q8IYT8); test: KINOMEscan; format: binding; conditions: 1 μM of compound 4; read-out: POC
T9 construct: purchased Eurofins DiscoverX

MARK2 = MARK2 (Homo sapiens, UniProt Q7KZI7); test: KINOMEscan; format: binding; conditions: 1 μM of compound 4; read-out: POC
WNK4 = target: T10, WNK4 (Homo sapiens, UniProt Q96J92); test: KINOMEscan; format: binding; conditions: 1 μM of compound 4; read-out: POC
T10 construct: purchased Eurofins DiscoverX

FGFR3 = target: T11, FGFR3 (Homo sapiens, UniProt P22607); test: KINOMEscan; format: binding; conditions: 1 μM of compound 4; read-out: POC
T11 construct: purchased Eurofins DiscoverX Corporation

ERK2 = target: T12, ERK2 (Homo sapiens, UniProt P28482); test: KINOMEscan; format: binding; conditions: 1 μM of compound 4; read-out: POC
T12 construct: purchased Eurofins DiscoverX Corporation

FGFR1 = target: T13, FGFR1 (Homo sapiens, UniProt P11362); test: KINOMEscan; format: binding; conditions: 1 μM of compound 4; read-out: POC
T13 construct: purchased Eurofins DiscoverX Corporation

Chain of MARK2 (Q7KZI7 whole entry): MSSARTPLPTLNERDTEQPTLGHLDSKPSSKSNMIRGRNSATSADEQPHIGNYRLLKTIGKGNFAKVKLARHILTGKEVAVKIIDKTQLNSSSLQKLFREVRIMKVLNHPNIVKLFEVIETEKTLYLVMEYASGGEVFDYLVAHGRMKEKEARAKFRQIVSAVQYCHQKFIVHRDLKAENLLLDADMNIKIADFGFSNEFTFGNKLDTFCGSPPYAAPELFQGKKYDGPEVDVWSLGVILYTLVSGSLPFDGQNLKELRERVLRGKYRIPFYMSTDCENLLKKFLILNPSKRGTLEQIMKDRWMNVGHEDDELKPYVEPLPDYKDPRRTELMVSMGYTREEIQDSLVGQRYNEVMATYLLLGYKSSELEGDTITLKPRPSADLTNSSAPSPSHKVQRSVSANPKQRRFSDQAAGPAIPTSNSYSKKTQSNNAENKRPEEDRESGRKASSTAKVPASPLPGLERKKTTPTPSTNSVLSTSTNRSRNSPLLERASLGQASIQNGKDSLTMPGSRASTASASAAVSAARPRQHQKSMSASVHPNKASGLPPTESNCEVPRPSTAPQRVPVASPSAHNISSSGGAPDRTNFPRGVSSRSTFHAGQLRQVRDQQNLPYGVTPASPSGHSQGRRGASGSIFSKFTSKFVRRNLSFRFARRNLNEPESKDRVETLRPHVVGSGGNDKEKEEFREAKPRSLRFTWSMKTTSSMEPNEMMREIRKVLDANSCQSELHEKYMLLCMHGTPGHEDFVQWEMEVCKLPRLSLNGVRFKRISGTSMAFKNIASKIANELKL
Chain of MAP4K4 (O95819 whole entry): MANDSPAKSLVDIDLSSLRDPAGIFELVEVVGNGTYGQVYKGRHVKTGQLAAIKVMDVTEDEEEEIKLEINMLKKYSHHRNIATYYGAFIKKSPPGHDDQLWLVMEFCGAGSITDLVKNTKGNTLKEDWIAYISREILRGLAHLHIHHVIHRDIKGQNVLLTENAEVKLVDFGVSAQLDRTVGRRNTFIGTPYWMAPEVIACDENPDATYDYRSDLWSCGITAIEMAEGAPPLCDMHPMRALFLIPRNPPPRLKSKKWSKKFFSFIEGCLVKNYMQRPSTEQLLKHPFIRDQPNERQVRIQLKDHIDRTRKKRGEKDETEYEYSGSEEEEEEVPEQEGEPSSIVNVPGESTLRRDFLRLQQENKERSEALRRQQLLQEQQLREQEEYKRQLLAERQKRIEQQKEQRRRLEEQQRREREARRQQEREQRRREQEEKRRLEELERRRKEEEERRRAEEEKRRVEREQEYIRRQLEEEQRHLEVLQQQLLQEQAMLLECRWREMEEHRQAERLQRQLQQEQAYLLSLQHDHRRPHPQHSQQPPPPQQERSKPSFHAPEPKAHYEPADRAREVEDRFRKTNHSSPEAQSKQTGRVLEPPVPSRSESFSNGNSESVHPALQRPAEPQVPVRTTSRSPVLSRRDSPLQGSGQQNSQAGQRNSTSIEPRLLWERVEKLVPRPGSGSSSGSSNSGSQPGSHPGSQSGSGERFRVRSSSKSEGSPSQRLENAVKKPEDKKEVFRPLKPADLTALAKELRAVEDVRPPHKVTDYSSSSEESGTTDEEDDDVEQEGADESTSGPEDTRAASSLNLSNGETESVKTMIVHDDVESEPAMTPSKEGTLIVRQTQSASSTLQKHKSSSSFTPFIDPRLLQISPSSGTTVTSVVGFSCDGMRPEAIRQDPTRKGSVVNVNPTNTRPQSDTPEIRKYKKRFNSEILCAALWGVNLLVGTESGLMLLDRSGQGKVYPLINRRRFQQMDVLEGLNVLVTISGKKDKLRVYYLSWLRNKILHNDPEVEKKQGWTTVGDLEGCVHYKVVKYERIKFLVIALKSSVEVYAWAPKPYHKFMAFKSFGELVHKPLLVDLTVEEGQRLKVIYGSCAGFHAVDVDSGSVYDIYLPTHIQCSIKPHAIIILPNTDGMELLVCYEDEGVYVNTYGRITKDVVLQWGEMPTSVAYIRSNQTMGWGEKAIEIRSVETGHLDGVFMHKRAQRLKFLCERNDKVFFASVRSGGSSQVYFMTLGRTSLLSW
T10 sequence (Q96J92 whole entry): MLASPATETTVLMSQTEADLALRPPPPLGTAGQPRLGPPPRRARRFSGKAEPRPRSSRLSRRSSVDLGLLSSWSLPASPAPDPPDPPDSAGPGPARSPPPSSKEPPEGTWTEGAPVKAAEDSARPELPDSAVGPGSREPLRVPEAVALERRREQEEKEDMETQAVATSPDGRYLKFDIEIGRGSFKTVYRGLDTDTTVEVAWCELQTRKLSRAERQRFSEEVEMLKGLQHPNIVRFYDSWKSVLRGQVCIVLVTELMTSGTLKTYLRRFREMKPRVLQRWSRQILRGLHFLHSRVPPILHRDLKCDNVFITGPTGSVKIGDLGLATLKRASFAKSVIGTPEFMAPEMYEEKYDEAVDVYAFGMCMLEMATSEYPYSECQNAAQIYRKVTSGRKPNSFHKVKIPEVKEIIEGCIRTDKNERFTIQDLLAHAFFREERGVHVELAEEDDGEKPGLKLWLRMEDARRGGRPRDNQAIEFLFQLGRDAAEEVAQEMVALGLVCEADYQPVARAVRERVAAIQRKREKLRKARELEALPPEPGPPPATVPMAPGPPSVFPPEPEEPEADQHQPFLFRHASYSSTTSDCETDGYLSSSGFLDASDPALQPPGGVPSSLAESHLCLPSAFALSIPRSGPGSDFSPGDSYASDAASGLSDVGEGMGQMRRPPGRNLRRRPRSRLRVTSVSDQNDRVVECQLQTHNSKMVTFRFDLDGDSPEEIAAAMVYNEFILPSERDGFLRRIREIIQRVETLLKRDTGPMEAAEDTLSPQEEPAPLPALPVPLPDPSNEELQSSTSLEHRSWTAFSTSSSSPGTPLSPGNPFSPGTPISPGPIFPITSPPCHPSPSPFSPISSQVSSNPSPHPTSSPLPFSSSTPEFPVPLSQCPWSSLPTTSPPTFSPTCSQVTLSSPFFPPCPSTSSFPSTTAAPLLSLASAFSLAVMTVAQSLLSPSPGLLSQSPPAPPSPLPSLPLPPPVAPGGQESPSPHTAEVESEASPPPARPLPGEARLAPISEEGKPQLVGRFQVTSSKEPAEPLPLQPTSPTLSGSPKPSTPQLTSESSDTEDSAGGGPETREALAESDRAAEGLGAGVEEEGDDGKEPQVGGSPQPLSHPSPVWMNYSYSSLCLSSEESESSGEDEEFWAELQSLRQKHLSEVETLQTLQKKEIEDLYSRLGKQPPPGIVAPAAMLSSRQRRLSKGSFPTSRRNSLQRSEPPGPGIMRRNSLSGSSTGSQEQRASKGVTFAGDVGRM
T4 sequence (O95747 whole entry): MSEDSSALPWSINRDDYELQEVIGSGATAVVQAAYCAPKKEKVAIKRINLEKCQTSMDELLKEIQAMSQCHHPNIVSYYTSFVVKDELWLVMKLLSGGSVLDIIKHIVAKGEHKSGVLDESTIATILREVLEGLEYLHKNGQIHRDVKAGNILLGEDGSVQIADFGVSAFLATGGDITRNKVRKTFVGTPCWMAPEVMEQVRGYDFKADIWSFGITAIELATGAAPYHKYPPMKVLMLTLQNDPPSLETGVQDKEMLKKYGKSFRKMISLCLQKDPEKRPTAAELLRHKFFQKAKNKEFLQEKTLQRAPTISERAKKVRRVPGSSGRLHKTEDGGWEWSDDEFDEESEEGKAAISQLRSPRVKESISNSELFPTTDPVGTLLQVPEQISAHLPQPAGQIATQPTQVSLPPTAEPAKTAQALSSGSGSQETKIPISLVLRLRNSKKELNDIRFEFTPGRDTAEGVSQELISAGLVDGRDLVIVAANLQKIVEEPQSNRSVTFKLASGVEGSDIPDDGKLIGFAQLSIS
T6 sequence (Q52WX2 whole entry): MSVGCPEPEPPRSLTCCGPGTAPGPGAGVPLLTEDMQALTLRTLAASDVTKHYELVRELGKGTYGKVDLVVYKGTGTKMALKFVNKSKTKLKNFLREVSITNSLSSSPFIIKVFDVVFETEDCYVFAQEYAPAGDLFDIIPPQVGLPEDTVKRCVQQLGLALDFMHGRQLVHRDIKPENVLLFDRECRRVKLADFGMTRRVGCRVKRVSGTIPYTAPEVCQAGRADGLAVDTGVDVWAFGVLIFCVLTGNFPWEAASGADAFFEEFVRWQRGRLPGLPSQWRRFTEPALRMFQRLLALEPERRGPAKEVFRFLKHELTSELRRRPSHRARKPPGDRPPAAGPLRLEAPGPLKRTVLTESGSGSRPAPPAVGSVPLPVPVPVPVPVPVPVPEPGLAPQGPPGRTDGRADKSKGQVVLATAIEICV
Chain of ITK (Q08881 whole entry): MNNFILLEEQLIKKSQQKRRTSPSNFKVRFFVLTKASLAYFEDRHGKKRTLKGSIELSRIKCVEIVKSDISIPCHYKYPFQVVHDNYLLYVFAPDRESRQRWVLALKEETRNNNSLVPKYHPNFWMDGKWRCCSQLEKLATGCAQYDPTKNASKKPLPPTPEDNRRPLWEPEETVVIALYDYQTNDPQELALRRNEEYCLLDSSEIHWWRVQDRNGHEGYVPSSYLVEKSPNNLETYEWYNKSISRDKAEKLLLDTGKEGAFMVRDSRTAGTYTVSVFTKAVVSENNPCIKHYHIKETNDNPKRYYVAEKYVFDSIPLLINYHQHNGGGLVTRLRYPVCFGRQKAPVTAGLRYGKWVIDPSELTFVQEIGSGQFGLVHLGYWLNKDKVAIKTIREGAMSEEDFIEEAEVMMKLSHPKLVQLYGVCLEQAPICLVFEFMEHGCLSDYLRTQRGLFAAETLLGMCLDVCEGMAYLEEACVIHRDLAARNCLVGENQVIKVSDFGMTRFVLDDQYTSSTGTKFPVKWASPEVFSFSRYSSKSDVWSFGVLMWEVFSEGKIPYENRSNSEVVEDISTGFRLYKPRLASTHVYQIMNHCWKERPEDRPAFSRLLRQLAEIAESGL

## C=CC(=O)Nc1ccc(OC)c(Nc2cc(-c3[nH]c(CC)nc3-c3cccc(NC(=O)c4cccc5c4NC(=O)c4ccccc4N5)c3)ccn2)c1 [Compound 4, N-(3-(5-(2-((5-Acrylamido-2-methoxyphenyl)amino)pyridin-4-yl)-2-ethyl-1H-imidazol-4-yl)phenyl)-11-oxo-10,11-dihydro-5H-dibenzo[b,e][1,4]diazepine-9-carboxamide]
CAMK2D
  remaining binding at 1 µM: 88%
PIM3
  remaining binding at 1 µM: 100%
SGK3
  remaining binding at 1 µM: 90%
PIK4CB
  remaining binding at 1 µM: 93%
[1]
  EGFR, ERK1/2 and AKT phosphorylation (Western blot): most effective in suppression of active EGFR (pY1068) as well as downstream pERK; also recorded: reduces EGFR (L858R/T790M), ERK1/2, and AKT phosphorylation
IKK-beta
  remaining binding at 1 µM: 88%
DMPK2
  remaining binding at 1 µM: 0%
GRK3
  remaining binding at 1 µM: 100%
MELK
  remaining binding at 1 µM: 100%
MLCK
  remaining binding at 1 µM: 86%
[2]
  remaining binding at 1 µM: 65%
MAP4K4
  remaining binding at 1 µM: 6.1%
PIK3CB
  remaining binding at 1 µM: 90%
PRKR
  remaining binding at 1 µM: 87%
OSR1
  remaining binding at 1 µM: 89%
TAK1
  remaining binding at 1 µM: 95%
PRP4
  remaining binding at 1 µM: 46%
KIT
  remaining binding at 1 µM: 100%
MUSK
  remaining binding at 1 µM: 100%
CDKL3
  remaining binding at 1 µM: 100%
SBK1
  remaining binding at 1 µM: 84%
MAP4K3
  remaining binding at 1 µM: 9.5%
ABL1-phosphorylated
  remaining binding at 1 µM: 80%
WNK2
  remaining binding at 1 µM: 62%
CDKL5
  remaining binding at 1 µM: 98%
CSNK1E
  remaining binding at 1 µM: 88%
CAMK2A
  remaining binding at 1 µM: 65%
ITK
  remaining binding at 1 µM: 87%
NEK4
  remaining binding at 1 µM: 100%
ULK2
  remaining binding at 1 µM: 80%
MARK2
  remaining binding at 1 µM: 85%
WNK4
  remaining binding at 1 µM: 85%
FGFR3
  remaining binding at 1 µM: 94%
ERK2
  remaining binding at 1 µM: 100%
FGFR1
  remaining binding at 1 µM: 86%
